Test results: patent US10717749B2, “Macrocyclic sulfondiimine compounds” (BAYER PHARMA AKTIENGESELLSCHAFT, priority 2015, dated 2020)

Key:
rat hepatocytes = experiment: In vitro metabolic stability in rat hepatocytes; format: in vitro ADME; settings: 1 μM
Description: Caco-2 cells (purchased from DSMZ Braunschweig, Germany) were seeded at a density of 4.5×10^4 cells per well on 24 well insert plates, 0.4 µm pore size, and grown for 15 days in DMEM medium supplemented with 10% fetal bovine serum, 1% GlutaMAX (100×, GIBCO), 100 U/mL penicillin, 100 μg/mL streptomycin (GIBCO) and 1% non essential amino acids (100×). Cells were maintained at 37° C. in a humified 5% CO2 atmosphere. Medium was changed every 2-3 day. Before running the permeation assay, the culture medium was replaced by a FCS-free hepes-carbonate transport buffer (pH 7.2). For assessment of monolayer integrity the transepithelial electrical resistance (TEER) was measured. Test compounds were predissolved in DMSO and added either to the apical or basolateral compartment in final concentration of 2 μM in transport buffer. Before and after 2 h incubation at 37° C. samples were taken from both compartments. Analysis of compound content was done after precipitation with methanol by LC/MS/MS analysis. Permeability (Papp) was calculated in the apical to basolateral (A→B) and basolateral to apical (B→A) directions. The apparent permeability was calculated using following equation: Papp=(Vr/Po)(1/S)(P2/t) Where Vr is the volume of medium in the receiver chamber, Po is the measured peak area or height of the test drug in the donor chamber at t=o, S the surface area of the monolayer, P2 is the measured peak area of the test drug in the acceptor chamber after 2 h of incubation, and t is the incubation time. The efflux ratio basolateral (B) to apical (A) was calculated by dividing the Papp B-A by the Papp A-B. In addition the compound recovery was calculated. 6. Investigation of In Vitro Metabolic Stability in Rat Hepatocytes
Hepatocytes from Han Wistar rats were isolated via a 2-step perfusion method. After perfusion, the liver was carefully removed from the rat: the liver capsule was opened and the hepatocytes were gently shaken out into a Petri dish with ice-cold Williams medium E (purchased from Sigma Aldrich Life Science, St Louis, Mo.). The resulting cell suspension was filtered through sterile gaze in 50 ml falcon tubes and centrifuged at 50×g for 3 min at room temperature. The cell pellet was resuspended in 30 ml WME and centrifuged through a Percoll® gradient for 2 times at 100×g. […] Cell viability was determined by trypan blue exclusion. […] Samples were frozen at −20° C. over night, after subsequently centrifuged for 15 minutes at 3000 rpm and the supernatant was analyzed with an Agilent 1200 HPLC-system with LCMS/MS detection.
The half-life of a test compound was determined from the concentration-time plot. From the half-life the intrinsic clearances were calculated.

HeLa-MaTu-ADR = experiment: Proliferation assay, crystal violet; format: cell-based; settings: Homo sapiens, 96 h, 4 days, read-out: Inhibition of HeLa-MaTu-ADR cell proliferation IC50
Description: Cultivated tumour cells (HeLa, human cervical tumour cells, ATCC CCL-2; NCI—H460, human non-small cell lung carcinoma cells, ATCC HTB-177; DU 145, hormone-independent human prostate carcinoma cells, ATCC HTB-81; HeLa-MaTu-ADR, multidrug-resistant human cervical carcinoma cells, EPO-GmbH Berlin; Caco-2, human colorectal carcinoma cells, ATCC HTB-37; B16F10, mouse melanoma cells, ATCC CRL-6475) were plated at a density of 3,500 cells/well (DU145), 3,000 cells/well (HeLa-MaTu-ADR), 1,500 cells/well (NCI—H460), 3,000 cells/well (HeLa), 2,000 cells/well (Caco-2), or 1,000 cells/well (B16F10) in a 96-well multititer plate in 150 μL of their respective growth medium supplemented 10% fetal calf serum. After 24 hours, the cells of one plate (zero-point plate) were stained with crystal violet (see below), the test substances were added in various concentrations (0 μM, as well as in the range of 0.0001-10 μM) employing HP Dispenser. The cells were incubated for 4 days in the presence of test substances. Cell proliferation was determined by staining the cells with crystal violet: the cells were fixed by adding 20 μl/measuring point of an 11% glutaric aldehyde solution for 15 minutes at room temperature. After three washing cycles of the fixed cells with water, the plates were dried at room temperature. The cells were stained by adding 100 μl/measuring point of a 0.1% crystal violet solution DU 145, Caco-2, HeLa (pH 4.5) B16F10, NCI—H460, HeLa-MaTu-ADR. After three washing cycles of the stained cells with water, the plates were dried at room temperature. The dye was dissolved by adding 100 μl per measuring point of a 10% acetic acid solution. The extinction was determined by photometry at a wavelength of 595/550/620 nm depending on the intensity of coloration, usually at 595 nm. The change of cell number, in percent, was calculated by normalization of the measured values to the extinction values of the zero-point plate (=0%) and the extinction of the untreated (0 μM) cells (=100%). The IC50 values (inhibitory concentration at 50% of maximal effect) were determined by means of a 4 parameter fit.

[1] = In vivo pharmacokinetics in rats; settings: male, Wistar, rat, plasma, iv; i.v. bolus dosing to rats; read-out: t1/2: terminal half-life (converted)
Description: 7. In Vivo Pharmacokinetics in Rats
For in vivo pharmacokinetic experiments test compounds were administered to male Wistar rats intravenously at doses of 0.3 to 1 mg/kg formulated as solutions using either rat plasma or solubilizers such as PEG400 in well-tolerated amounts.
For pharmacokinetics after intravenous administration test compounds were given as i.v. bolus and blood samples were taken at 2 min, 8 min, 15 min, 30 min, 45 min, 1 h, 2 h, 4 h, 6 h, 8 h and 24 h after dosing. […] Blood was collected into Lithium-Heparin tubes (Monovetten®, Sarstedt) and centrifuged for 15 min at 3000 rpm. An aliquot of 100 μL from the supernatant (plasma) was taken and precipitated by addition of 400 μL ice cold acetonitrile and frozen at −20° C. over night. Samples were subsequently thawed and centrifuged at 3000 rpm, 4° C. for 20 minutes. Aliquots of the supernatants were taken for analytical testing using an Agilent 1200 HPLC-system with LCMS/MS detection. PK parameters were calculated by non-compartmental analysis using a PK calculation software. […]

maximal calculated oral bioavailability (Fmax) based on stability data in rat hepatocytes (rat hepatocytes)	IC50 (HeLa-MaTu-ADR)	half-life [1]	Compound
58%			CS(=N)(Cc1cc2nc(c1)OCCCOc1cc(F)ccc1-c1cc(ncc1F)N2)=NCCCO (racemic) [Example 2, (rac)-3-(2-{[15,19-difluoro-3,4-dihydro-2H,11H-10,6-(azeno)-12,16-(metheno)-1,5,11,13-benzodioxadiazacyclooctadecin-8-yl]methyl}-2-methyl-2λ^6-diazathia-1,2-dien-1-yl)propan-1-ol]
46%			CN=S(C)(=N)Cc1cc2cc(c1)OCCCCOc1cc(F)ccc1-c1nc(ncc1F)N2 (racemic) [Example 10, (rac)-9-[(N,S-dimethylsulfonodiimidoyl)methyl]-16,20-difluoro-2,3,4,5-tetrahydro-12H-13,17-(azeno)-11,7-(metheno)-1,6,12,14-benzodioxadiazacyclononadecine]
76%	7.8 nM	3.4 h	CS(=N)(=N)Cc1cc2nc(c1)OCCCOc1cc(F)ccc1-c1cc(ncc1F)N2 [Example 1, 15,19-difluoro-8-[(S-methylsulfonodiimidoyl)methyl]-3,4-dihydro-2H,11H-10,6-(azeno)-12,16-(metheno)-1,5,11,13-benzodioxadiazacyclooctadecine]
93%		6.9 h	CS(=N)(=N)Cc1cc2cc(c1)OCCCCOc1cc(F)ccc1-c1nc(ncc1F)N2 [Example 5, 16,20-difluoro-9-[(S-methylsulfonodiimidoyl)methyl]-2,3,4,5-tetrahydro-12H-13,17-(azeno)-11,7-(metheno)-1,6,12,14-benzodioxadiazacyclononadecine]
